Several values for one entry are separate records, joined by “and”; a condition that tells them apart may be missing. Equal values may be shown once.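 Following 48 hours of exposure in 96-well plates, responses at five concentrations were used to interpolate endpoints linearly. Abbreviation: GI50, concentration required for 50% inhibition of growth. TGI: total growth inhibition.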
Assays:
Assay in all cases: NCI anticancer screen, dose series, 48 h
OVCAR-8 ovarian = system: OVCAR-8 ovarian
MDA-MB-435 = system: MDA-MB-435
SK-MEL-28 melanoma = system: SK-MEL-28 melanoma
NCI/ADR-RES ovarian = system: NCI/ADR-RES ovarian
HT29 colon = system: HT29 colon
RPMI-8226 leukemia = system: RPMI-8226 leukemia
DU-145 prostate = system: DU-145 prostate
UACC-62 melanoma = system: UACC-62 melanoma
ACHN renal = system: ACHN renal
SNB-75 CNS = system: SNB-75 CNS

| Structure (SMILES) | GI50 (OVCAR-8 ovarian) | TGI (OVCAR-8 ovarian) | GI50 (MDA-MB-435) | TGI (MDA-MB-435) | GI50 (SK-MEL-28 melanoma) | TGI (SK-MEL-28 melanoma) | GI50 (NCI/ADR-RES ovarian) | TGI (NCI/ADR-RES ovarian) [µM] | GI50 (HT29 colon) | GI50 (RPMI-8226 leukemia) | GI50 (DU-145 prostate) | TGI (DU-145 prostate) | GI50 (UACC-62 melanoma) | TGI (UACC-62 melanoma) | GI50 (ACHN renal) | TGI (ACHN renal) | GI50 (SNB-75 CNS) | TGI (SNB-75 CNS) | TGI (HT29 colon) | TGI (RPMI-8226 leukemia) [µM] |
| --- | --- | --- | --- | --- | --- | --- | --- | --- | --- | --- | --- | --- | --- | --- | --- | --- | --- | --- | --- | --- |
| COc1cc2nnc3c4cccnc4[nH]c3c2cc1OC | 3.91 µM and 1.25 µM | 50 µM and > 100 µM | 5.66 µM and 2.23 µM | 38.7 µM and 6.96 µM | 18.8 µM and 4.49 µM | 50 µM and > 100 µM | 2.19 µM | 50 | 1.81 µM and 1.34 µM | 1.45 µM and 0.187 µM | 4.32 µM and 2.1 µM | 18.3 µM and 5.11 µM | 2.9 µM and 2.49 µM | 12.5 µM and 9.65 µM | 0.298 µM and 0.333 µM | 3.54 µM and 1.52 µM | 2.35 µM and 1.48 µM | 21.9 µM and 7.45 µM | – | – |
| COc1ccc(-c2cc(/C=C/C(=O)c3ccc(N)cc3)[nH]n2)cc1OC | 2.95 µM | 10.5 µM | 2.53 µM | 7.23 µM | 2.14 µM | 5.66 µM | 6.21 µM | > 100 | 2.6 µM | 1.28 µM | 3.74 µM | 13.5 µM | 3.11 µM | 10.9 µM | 1.67 µM | 3.29 µM | 2.74 µM | 14.2 µM | 6.91 µM | 5.52 |
| Nc1nc(=S)c2ncn(C3OC(COP(=O)(O)O)C(O)C3O)c2[nH]1 (configuration not stated) | 0.715 µM | > 100 µM | 2.48 µM | > 100 µM | 6.57 µM | > 100 µM | 0.491 µM | > 100 | 1.2 µM | 0.451 µM | 0.577 µM | > 100 µM | 0.539 µM | 6.14 µM | 1.99 µM | > 100 µM | 0.96 µM | > 100 µM | > 100 µM | > 100 |
| O=C(COc1ccc(/C=C2\Oc3ccccc3C2=O)cc1)Nc1nc2ccccc2s1 | 0.321 µM | > 100 µM | 8.21 µM | > 100 µM | 37.5 µM | > 100 µM | 2.92 µM | > 100 | 23.6 µM | 2.79 µM | 5.59 µM | > 100 µM | 42 µM | > 100 µM | 28.9 µM | > 100 µM | 1.99 µM | > 45.5 µM | > 100 µM | 15.7 |
| CC(C)Cc1ccc(C(C)/C=C2\CCC(CN(C)C)C2=O)cc1 (configuration not stated) | – | 19 µM | – | 19.6 µM | – | 30.4 µM | – | 24.3 | – | – | – | 23.6 µM | – | 33.8 µM | – | 38.1 µM | – | 30.8 µM | 31.5 µM | 9.94 |
| Cn1c(=O)c2nc3sc4c(n3c2n(C)c1=O)C(=O)c1ccccc1C4=O | – | > 74.2 µM | – | > 76 µM | – | > 100 µM | – | 87.3 | – | – | – | > 100 µM | – | > 100 µM | – | > 54.7 µM | – | 72.1 µM | > 56.2 µM | > 83.4 |
| CCOC(=O)/C(=C\c1cccc(C)c1)C(C)=O | – | 75.1 µM | – | 45.4 µM | – | 30.5 µM | – | 79.5 | – | – | – | 38.7 µM | – | 31.7 µM | – | 66 µM | – | 25.2 µM | > 100 µM | 32.2 |
| O=C1c2ccccc2C(=O)c2c(NC3CCCCC3)ccc(Nc3ccc(S(=O)(=O)O)cc3)c21 | – | > 100 µM | – | > 100 µM | – | > 100 µM | – | > 100 | – | – | – | > 100 µM | – | > 100 µM | – | > 100 µM | – | > 100 µM | > 100 µM | > 100 |
| Cc1cnc(C(=O)NNc2nc3sc4c(c3c(=O)[nH]2)C(C)CCC4)cn1 (configuration not stated) | 0.952 µM | 16 µM | 3.25 µM | 26.6 µM | 1.37 µM | 29.6 µM | 1.78 µM | 10.4 | 1.61 µM | 3.39 µM | 1.43 µM | 80.7 µM | 0.528 µM | 6.93 µM | 0.55 µM | 11 µM | 0.259 µM | 15.1 µM | > 100 µM | > 100 |
| CC[C@H](C)[C@H](NC(=O)[C@H]1CCCCN1C)C(=O)N(C)[C@H](C[C@@H](OC(C)=O)c1nc(C(=O)NC23CC(C(=O)OC)(C2)C3)cs1)C(C)C | 0.00056 µM and 0.00325 µM | > 32.5 µM | 0.000137 µM and < 0.00325 µM | 0.00104 µM and < 0.00325 µM | – | > 32.5 µM | 0.0522 µM and 0.0479 µM | 0.371 | 0.000433 µM and 0.00325 µM | 0.000328 µM and 0.00325 µM | 0.000449 µM and 0.00325 µM | > 32.5 µM | 0.000614 µM and 0.00325 µM | > 32.5 µM | 0.00806 µM and 0.00325 µM | > 32.5 µM | 0.000382 µM and 0.00325 µM | > 32.5 µM | 0.0103 µM and 0.011 µM | 12.1 |
| COc1ccc(-c2nc3ccc(Cc4ccc5nc(-c6ccc(OC)cc6)[nH]c5c4)cc3[nH]2)cc1 | 0.0438 µM | 1.17 µM | < 0.01 µM | 0.0202 µM | 0.252 µM | 2.49 µM | 0.0354 µM | 1.84 | < 0.01 µM | 0.0425 µM | 0.0385 µM | 0.154 µM | 0.0471 µM | 2.19 µM | 0.101 µM | 1.96 µM | 0.0259 µM | 1.23 µM | 0.11 µM | 0.326 |
| CCc1ccc(Nc2cc(C)c3ccc(O)cc3n2)cc1 | 10.8 µM | 35.3 µM | 6.94 µM | 20.3 µM | 11.7 µM | 24.7 µM | 6.44 µM | > 100 | 3.57 µM | 3.19 µM | 12.1 µM | 28.1 µM | 8.57 µM | 22.1 µM | 5.82 µM | 19.5 µM | 11.3 µM | 24.8 µM | 12.5 µM | 20.2 |
| Cc1cc(Cl)nc(N(CCNc2ccnc3cc(Cl)ccc23)Cc2ccco2)n1 | 1.93 µM | 4.29 µM | 1.76 µM | 3.4 µM | 1.74 µM | 3.33 µM | 1.74 µM | 4 | 2.11 µM | 1.76 µM | 1.9 µM | 3.8 µM | 1.69 µM | 3.27 µM | 1.71 µM | 3.4 µM | 1.57 µM | 4.18 µM | 6.83 µM | 4.27 |
| CN(C)c1ccc(-c2cc(-c3ccc(Nc4nc(Nc5ccc(Cl)cc5)nc(Nc5ccc(Cl)cc5)n4)cc3)nc(N)c2C#N)cc1 | 6.38 µM | > 100 µM | 27.9 µM | > 100 µM | 2.05 µM | 6.35 µM | > 100 µM | > 100 | 8.85 µM | 0.864 µM | 34.6 µM | > 100 µM | 20.4 µM | 92.7 µM | 13.1 µM | > 100 µM | 3.05 µM | > 100 µM | > 100 µM | 53.8 |

Reference: PubChem BioAssay (NCI)
